Reference: the NIST ThermoML archive (doi:10.1016/j.jct.2010.07.008)

Details: Liquid, Closed cell (Static) method

CN(C)CCOCCO [2-(2-dimethylaminoethoxy)ethanol]
Details | vapor or sublimation pressure [kPa]
283.15 K | 0.007
293.14 K | 0.016
303.09 K | 0.0346
313.08 K | 0.0707
323.28 K | 0.1418
333.12 K | 0.2604
343.12 K | 0.4742
353.14 K | 0.8145
363.35 K | 1.419
373.1 K | 2.315
